From patent US4061645A, “2-Trichloromethyl-5-methylsulfinyl-1,3,4-thiadiazole” (Schering Aktiengesellschaft, priority 1972, dated 1977)
Where two headings read alike, the source gives them in different places.

Assays:
Rhizoctonia solani [1] = assay: Rhizoctonia solani infested compost soil, marrow peas (Example 3); format: in vivo; settings: for Weight of fresh plant / Root evaluation (1-4): 3 weeks; for Number of sound peas after 3 wks.: of 25 grains
Description: Steamed compost soil was inoculated with mycelium of Rhizoctonia solani. After homogeneous mixture of the products with the infested soil, the products were present in the form of 20% powder preparations, the seeding of 25 grains of marrow peas of the variety "Miracle of Kelvedon" per concentration was effected without waiting period in clay dishes holding 1 liter of soil. The table lists the number of germinated sound peas, the weight of the fresh plant, and a root evaluation after a cultivation period of three weeks at 22°-25° C.

Rhizoctonia solani [2] = assay: Limit concentration of soil-fungicidal effectiveness, Rhizoctonia solani, infested soil seeded with peas (Example 1); format: in vivo; settings: for minimal effective concentration: soil, 480 h, read-out: Limit concentration of the fungicidal effectiveness
Description: (§1) Limit concentrations of the soil-fungicidal effectiveness at homogeneous mixture of the products with the infested soil. Basic condition in the evaluation are a sound root formation without fungus necroses and germination of the seed of at least 90% compared with the result obtained in steamed soil. Per concentration there were seeded 25 grains of peas of the variety "Miracle of Kelvedon" (marrow pea) without a waiting period. The cultivation time in the tests was 20 to 23 days at a temperature of 22°-25° C. Four commercial products were included in the test series.
Rhizoctania solani: -- Steamed compost soil was inoculated with mycelium of Rhizoctonia solani.

Pythium ultimum [3] = assay: Limit concentration of soil-fungicidal effectiveness, Pythium ultimum, infested soil seeded with peas (Example 1); format: in vivo; settings: 20 to 23 days, 22°-25° C
Description: as §1
Pythium ultimum: -- Steamed compost soil was inoculated with mycelium of Pythium ultimum

[4] = tested on: Fusarium oxysporum f. callistephi; assay: Fusarium infested compost soil, Callistephus chinesis seedlings (Example 5); format: in vivo; settings: of 4 seedlings
Description: Steamed compost soil was inoculated with a spore suspension of Fusarium oxysporum f. callistephi. After homogeneous mixture of the products with the infested soil, the products were present as 20% powder preparations, and after a waiting period of 8 days, there were set out per concentration 4 seedlings of Callistephus chinesis, master aster "Sun Ray" as host plants.

Pythium ultimum [5] = assay: Pythium ultimum infested compost soil, marrow peas (Example 2); format: in vivo; settings: for Number of sound peas after 3 wks.: of 25 grains
Description: Steamed compost soil was inoculated with mycelium of Pythium ultimum.

[6] = tested on: Colletotrichum gloeosporioides; assay: Agar test (Example 7), Colletotrichum; format: cell-based; settings: 10 ppm; 5 days at 22° C; control 100
Description: (§2) The fungicidal action of the agents according to the invention was tested in artificial nutrient media against plant-pathogenic fungi in Petri dishes (agar test). The procedure was to sterilize the medium consisting of 2% malt extract and 1.5% agar-agar powder. Before the solidification of the medium, the active substances were added to it, mixing thoroughly, so that the medium received 10 parts of active substance per million (ppm). After the solidification of the medium, the latter was inoculated with a platinum dropper which contained 100 spores each of the fungi to be tested, and after five days at 22° C, an evaluation was made by measuring the diameter of the colonies in mm.

Helminthosporium sativum = assay: Agar test (Example 7), Helminthosporium; format: cell-based; settings: 10 ppm; 5 days at 22° C; control 100
Description: as §2

Asperqilus niger = assay: Agar test (Example 7), Aspergillus; format: cell-based; settings: 10 ppm; 5 days at 22° C; control 100
Description: as §2

Stemphylium ilicis = assay: Agar test (Example 7), Stemphylium; format: cell-based; settings: 10 ppm; 5 days at 22° C; control 100
Description: as §2

Botrytis cinerea = assay: Agar test (Example 7), Botrytis; format: cell-based; settings: 10 ppm; 5 days at 22° C; control 100
Description: as §2

Damping-off Fungi = assay: Cotton seed disinfection, normal compost soil (Example 6); format: in vivo; settings: 100 mg active ingr. per kg of seed; 10% formulation; 15 days
Description: Cotton seeds disinfected with 10% formulations were seeded in normal compost soil (Damping-off Fungi), 25 grains per concentration. After a cultivation time of 15 days at 22°-25° C, the number of germinated sound cotton seedlings and their weight as fresh plants were determined.

Meloidogyne incognita = assay: Nematocidal action, infested compost soil, cucumber seeds (Example 8); format: in vivo; settings: 30 days
Description: The products as 20% powder preparations were homogeneously admixed with a compost soil heavily infested by root gal nematodes. Without a waiting period, 20 cucumber seeds per concentration were seeded. After a cultivation time of 30 days at a temperature of 23°-25° C, the nematocidal action was evaluated by counting the root galls formed in the waterbath. The following table states the reduction of attack in percent. In the control, an average of 90 root galls per seedling had formed.

[7] = 10 mg active ingr. per liter of soil
[8] = 20 mg active ingr. per liter of soil
[9] = 30 mg active ingr. per liter of soil
[10] = 40 mg active ingr. per liter of soil
[11] = 50 mg active ingredient per liter of soil
[12] = 100 mg active ingredient per liter of soil
[13] = 200 mg active ingr. per liter of soil, 3 weeks
[14] = 10 mg active ingr. per liter of soil, 3 weeks
[15] = 20 mg active ingr. per liter of soil, 3 weeks
[16] = 30 mg active ingr. per liter of soil, 3 weeks
[17] = 50 mg active ingr. per liter of soil
[18] = 100 mg active ingr. per liter of soil

SMILES | Weight of fresh plant (Rhizoctonia solani [1]; [7]) [g] | Number of sound peas after 3 wks. (Rhizoctonia solani [1]; [7]) | Weight of fresh plant (Rhizoctonia solani [1]; [8]) [g] | Number of sound peas after 3 wks. (Rhizoctonia solani [1]; [8]) | Weight of fresh plant (Rhizoctonia solani [1]; [9]) [g] | Number of sound peas after 3 wks. (Rhizoctonia solani [1]; [9]) | Limit concentration of the fungicidal effectiveness (Pythium ultimum [3]) | Number of attacked plants after 3 weeks [4, 11] | Number of attacked plants after 3 weeks [4, 12] | diameter of the colonies [6] [mm] | minimal effective concentration (Rhizoctonia solani [2]; 20 to 23 days, 22°-25° C) [µg/mL] | diameter of the colonies (Helminthosporium sativum) [mm] | diameter of the colonies (Asperqilus niger) [mm] | diameter of the colonies (Stemphylium ilicis) [mm] | diameter of the colonies (Botrytis cinerea) [mm] | Sound plants in % (Damping-off Fungi) [%] | Weight of fresh plant (Damping-off Fungi) [g] | further results
COc1cc(Cl)c(OC)cc1Cl [1,4-dichloro-2,5-dimethoxy-benzene, 1,4-dichloro-2,5-dimethoxybenzene, reference compound] | 0 | 0 | 0 | 0 | 18 | 21 | insufficient | 4 | 4 |  |  |  |  |  |  |  |  | Root evaluation (1-4) (Rhizoctonia solani [1]; [9]): 4; Root evaluation (1-4) (Rhizoctonia solani [1]; [10]): 4; Weight of fresh plant (Rhizoctonia solani [1]; [10]): 18 g; Number of sound peas after 3 wks. (Rhizoctonia solani [1]; [10]): 22; minimal effective concentration (Rhizoctonia solani [2]): 30 µg/mL; Number of attacked plants after 3 weeks ([4]; 200 mg active ingredient per liter of soil): 4; Root evaluation (1-4) (Pythium ultimum [5]; [13]): 1; Weight of fresh plant (Pythium ultimum [5]; [13]): 1 g; Number of sound peas after 3 wks. (Pythium ultimum [5]; 200 mg active ingr. per liter of soil): 2
C[S+]([O-])c1nnc(C(Cl)Cl)s1 (stereo not shown) [Compound 3, 2-dichloromethyl-5-methylsulfinyl-1,3,4-thiadiazole] | 0 | 0 | 2 | 2 | 21 | 22 |  | 0 | 0 | 0 | 30 | 0 | 50 | 0 | 36 | 100 | 29 | Weight of fresh plant (Pythium ultimum [5]; [14]): 22 g; Number of sound peas after 3 wks. (Pythium ultimum [5]; [7]): 24; Weight of fresh plant (Pythium ultimum [5]; [15]): 24 g; Number of sound peas after 3 wks. (Pythium ultimum [5]; [8]): 24; Weight of fresh plant (Pythium ultimum [5]; [16]): 22 g; Number of sound peas after 3 wks. (Pythium ultimum [5]; [9]): 25; Nematocidal action in % (reduction of attack) (Meloidogyne incognita; 40 mg per liter of soil): 100%; Nematocidal action in % (reduction of attack) (Meloidogyne incognita; 60 mg per liter of soil): 100%
C[S+]([O-])c1nnc(C(Cl)(Cl)Cl)s1 (stereo not shown) [Compound 8, 2-trichloromethyl-5-methylsulfinyl-1,3,4-thiadiazole] | 17 | 21 | 17 | 24 | 17 | 24 |  | 0 | 0 | 0 | 10 | 0 | 0 | 0 | 0 | 96 | 29 | Weight of fresh plant (Pythium ultimum [5]; [14]): 12 g; Number of sound peas after 3 wks. (Pythium ultimum [5]; [7]): 19; Weight of fresh plant (Pythium ultimum [5]; [15]): 22 g; Number of sound peas after 3 wks. (Pythium ultimum [5]; [8]): 24; Weight of fresh plant (Pythium ultimum [5]; [16]): 22 g; Number of sound peas after 3 wks. (Pythium ultimum [5]; [9]): 25
CS(=O)(=O)c1nnc(C(Cl)(Cl)Cl)s1 [Compound 21, 2-trichloromethyl-5-methylsulfonyl-1,3,4-thiadiazole] | 11 | 17 | 17 | 24 | 17 | 24 |  | 0 | 0 | 0 | 10 | 0 | 0 | 0 | 0 | 100 | 33 | 
CCCCC(Br)c1nnc(S(C)(=O)=O)s1 (stereo not shown) [Compound 52, 2-(1-bromopentyl)-5-methylsulfonyl-1,3,4-thiadiazole] |  |  |  |  |  |  | no effect |  |  |  | 100 |  |  |  |  |  |  | 
CC(C)CC(Br)c1nnc(S(C)(=O)=O)s1 (stereo not shown) [Compound 53, 2-(1-bromoisopentyl)-5-methylsulfonyl-1,3,4-thiadiazole] |  |  |  |  |  |  | no effect |  |  |  | 100 |  |  |  |  |  |  | 
CS(=O)(=O)c1nnc(C(F)(F)Cl)s1 [Compound 54] |  |  |  |  |  |  | 10 mg of active substance per lit |  |  |  |  |  |  |  |  |  |  | Limit concentration of the fungicidal effectiveness (Rhizoctonia solani [2]; 20 to 23 days, 22°-25° C): 20 mg of active substance per lit
C[S+]([O-])c1nnc(C(F)(F)Cl)s1 (stereo not shown) [Compound 55] |  |  |  |  |  |  | 10 mg of active substance per lit |  |  |  |  |  |  |  |  |  |  | Limit concentration of the fungicidal effectiveness (Rhizoctonia solani [2]; 20 to 23 days, 22°-25° C): 10 mg of active substance per lit
O=[N+]([O-])c1c(Cl)c(Cl)c(Cl)c(Cl)c1Cl [Pentachloronitrobenzene, pentachloronitrobenzene, reference compound] |  |  |  |  |  |  | insufficient |  |  |  |  |  |  |  |  |  |  | Weight of fresh plant (Rhizoctonia solani [1]; [17]): 4 g; Number of sound peas after 3 wks. (Rhizoctonia solani [1]; [17]): 4; Weight of fresh plant (Rhizoctonia solani [1]; [18]): 15 g; Number of sound peas after 3 wks. (Rhizoctonia solani [1]; [18]): 25; minimal effective concentration (Rhizoctonia solani [2]): 75 µg/mL
